{
  "source": "paper PMC5491371",
  "about": "(Clinical cancer research : an official journal of the …, 2016)",
  "target": "T1, ITK (Homo sapiens, UniProt Q08881)",
  "T1 sequence (Q08881 1-620)": "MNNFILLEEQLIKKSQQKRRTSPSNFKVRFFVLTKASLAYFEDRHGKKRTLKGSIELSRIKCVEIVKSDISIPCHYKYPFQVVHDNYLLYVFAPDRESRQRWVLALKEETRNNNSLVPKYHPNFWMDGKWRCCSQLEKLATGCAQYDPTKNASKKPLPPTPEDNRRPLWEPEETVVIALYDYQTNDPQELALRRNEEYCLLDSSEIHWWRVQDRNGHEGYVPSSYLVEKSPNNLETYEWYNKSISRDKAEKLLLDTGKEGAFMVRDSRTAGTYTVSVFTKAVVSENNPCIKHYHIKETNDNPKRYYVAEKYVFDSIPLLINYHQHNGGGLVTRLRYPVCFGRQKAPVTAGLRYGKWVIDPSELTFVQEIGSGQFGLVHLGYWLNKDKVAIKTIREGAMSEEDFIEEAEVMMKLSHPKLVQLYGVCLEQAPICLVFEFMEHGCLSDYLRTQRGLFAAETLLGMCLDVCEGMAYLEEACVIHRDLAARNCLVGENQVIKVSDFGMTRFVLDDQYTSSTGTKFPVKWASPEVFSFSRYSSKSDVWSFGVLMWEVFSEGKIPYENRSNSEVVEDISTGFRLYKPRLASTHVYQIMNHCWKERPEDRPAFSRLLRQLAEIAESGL",
  "type": "cell-based",
  "conditions": "Jurkat, read-out: % inhibition at 1 μM",
  "data": [
    {"compound": "C=CC(=O)N1CCC[C@@H](n2nc(-c3ccc(Oc4ccccc4)cc3)c3c(N)ncnc32)C1", "note": "[ibrutinib]", "values": [
      {"measurement": "inhibition at 1 µM", "value": "> 90", "unit": "%"}
    ]}
  ]
}
